Assay results: US20110262425A1, “THERAPEUTIC AGENT FOR MLL LEUKEMIA AND MOZ LEUKEMIA OF WHICH MOLECULAR TARGET IS M-CSF RECEPTOR, AND USE THEREOF” (NATIONAL CANCER CENTER, priority 2007, published 2011)
Entries after “also recorded” stand apart in the source; their conditions may differ. Structures can show the parent of a compound that is named as a salt.

Tests used:
Format in all cases: in vivo
M-CSFR-expressing cells = assay: Ablation of M-CSFR-expressing cells by AP20187 in MOZ-TIF2-induced AML mice (FKBP-Fas suicide gene transgenic BM cells, secondary transplantation); settings: then 1 mg/kg every three days
Method: FIG. 1 depicts the result of M-CSFR expression in bone marrow cells of MOZ leukemogenesis mice. (A) BM cells from MOZ-TIF2-induced AML mice were analyzed by FACS for expression of GFP and M-CSFR. (B) M-CSFR^high cells and M-CSFR^low/- cells were sorted by flow cytometer. MOZ-TIF2 expression in these cells was investigated by immunoblot analysis using an anti-MOZ antibody. (C, D) Indicated numbers of M-CSFR^high cells (C) and M-CSFR^low/- cells (D) were transplanted into mice irradiated beforehand with a lethal dose of radiation and survival from leukemia onset was investigated. (E) Structure of genes for the M-CSFR promoter, EGFP, the NGFR-FKBP-Fas suicide construct, and activation mechanism of NGFR-FKBP-Fas. In transgenic (Tg) mice, conditional ablation of cells highly expressing M-CSFR can be induced by exposure to an AP20187 dimerizer. (F-I) AML mice were induced by transplantation of BM cells from Tg mice infected with MOZ-TIF2, and 10^5 BM cells from AML Tg mice were secondary transplanted into wild-type mice lethally-irradiated beforehand. The secondary-transplanted mice were exposed to AP20187 seven days after transplantation. Expression of GFP and M-CSFR in BM cells (F, G) and the size of spleens (H) of normal Tg mice (F), and of untreated and AP20187-treated secondary-transplanted mice (G) were analyzed four weeks after transplantation. Leukemia-free survival rate of the untreated and AP20187-treated secondary-transplanted mice were investigated (I).
In the transgenic mice, expression levels of endogenous M-CSFR were proportional to those of EGFP and FKBP-Fas (FIG. 1F), and conditional ablation of M-CSFR-expressing cells can be induced by injection of the AP20187 dimerizer (Burnett, S. H. et al., J Leukoc Biol (2004) 75: 612-23). c-KIT^+ BM cells of the transgenic mice were infected with the MOZ-TIF2 retrovirus, and transplanted into lethally-irradiated wild-type mice. These mice developed AML about two months after transplantation, and their BM cells (10^5 cells/mouse) were transplanted into secondary recipient mice. […]

MOZ-TIF2-induced AML = assay: Effect of Imatinib on MOZ-TIF2-induced AML in mice; settings: Imatinib 100 mg/kg orally twice a day
Source text: (§1) FIG. 10 (A-D) BM cells (10^5 cells) from AML mice with MOZ-TIF2 (A), MLL-AF10 (B), or N-MYC (C) were transplanted into irradiated mice. […] (A-C) show the results of analyzing leukemia-free survival of the mice. (D) depicts the photograph showing the result of analyzing spleen sizes of the MOZ-TIF2-introduced mice three weeks after transplantation.

MLL-AF10-induced AML = assay: Effect of Imatinib on MLL-AF10-induced AML in mice; settings: Imatinib 100 mg/kg orally twice a day
Source text: as §1

N-MYC-induced AML = assay: Effect of Imatinib on N-MYC-induced AML in mice; settings: Imatinib 100 mg/kg orally twice a day
Source text: as §1

| SMILES | development of AML (leukemia-free survival) (M-CSFR-expressing cells; AP20187 10 mg/kg i.v. daily for 5 days, 5-6 weeks after transplantation) | M-CSFR^high cells in BM (M-CSFR-expressing cells; AP20187 10 mg/kg intravenously daily for 5 days, from seven days after transplantation, three weeks after transplantation) | splenomegaly (M-CSFR-expressing cells; AP20187 10 mg/kg intravenously daily for 5 days, three weeks after transplantation) | MOZ-TIF2-induced splenomegaly (MOZ-TIF2-induced AML; three weeks after transplantation) | onset of AML (leukemia-free survival) (MOZ-TIF2-induced AML; MOZ-TIF2) | onset of AML (leukemia-free survival) (MLL-AF10-induced AML) | progress of AML (leukemia-free survival) (N-MYC-induced AML) |
| --- | --- | --- | --- | --- | --- | --- | --- |
| CC[C@H](C(=O)N1CCCC[C@H]1C(=O)O[C@H](CCc1ccc(OC)c(OC)c1)c1cccc(OCC(=O)NCC(CNC(=O)COc2cccc([C@@H](CCc3ccc(OC)c(OC)c3)OC(=O)[C@@H]3CCCCN3C(=O)[C@@H](CC)c3cc(OC)c(OC)c(OC)c3)c2)CN(C)C)c1)c1cc(OC)c(OC)c(OC)c1 [AP20187] | suppressed; also recorded: none of the AP20187-treated mice, developed AML | neither M-CSFR^high cells nor splenomegaly were detected | suppressed; also recorded: neither M-CSFR^high cells nor splenomegaly were detected | – | – | – | – |
| Cc1ccc(NC(=O)c2ccc(CN3CCN(C)CC3)cc2)cc1Nc1nccc(-c2cccnc2)n1 [Imatinib, Imatinib mesylate] | – | – | – | inhibited | slowed onsets of AML; also recorded: delaying the leukemia onset | slowed onsets of AML; also recorded: delaying the leukemia onset | did not affect the progress |
